The target in one data set is T1, CDK8/CyclinC (Homo sapiens, UniProt P49336).
T1 construct: purchased ThermoFisher PR7261B
The data set can be described thus: LanthaScreen TR-FRET binding to recombinant CDK8 in complex with Cyclin C. To be noted: CDK8/CyclinC 5 nM, Tracer 236 10 nm, average of several runs; read-out: CDK8-CycC IC50. On the procedure:
The ability of the compounds described herein to bind to the CDK8 protein was determined using the LanthaScreen method (ThermoFisher).
The measurements were conducted in a reaction volume (15 μl) using a 384-well plate (Corning, #CLS4513). CDK8/CyclinC enzyme (ThermoFisher, #PR7261B) was mixed with Anti-His-tag-Biotin antibodies (ThermoFisher, #PV6090), Streptavidin-Eu (ThermoFisher, #PV6025), and the resulting mixture was added to the wells of the plate in the amount of 5 μl per well. The final concentrations of the substances were as follows: CDK8/CyclinC—5 nM, Streptavidin-Eu—3 nM, Anti-His-tag-Biotin—3 nM. Staurosporine was used as a control inhibitor, and a 0.1% solution of dimethyl sulfoxide (DMSO) in the reaction buffer containing 250 mM HEPES (pH 7.5), 50 mM MgCl2, 5 mM EGTA, and 0.05% Brij-35 was used as a blank.
Tested inhibitors and controls were added to the corresponding wells in the amount of 5 μl per well. The plate was incubated at room temperature for 20 minutes. […] The final concentration of the tracer was 10 nm. A reaction buffer was used as a negative control instead of the tracer solution. The plate was incubated for 40 minutes at 25° C. Then the TR-FRET signal was measured on a SPARK20 plate reader (Tesap, Switzerland) according to the manufacturer's recommendations, and converted to the amount of kinase-bound tracer. The IC50 value was determined using the SparkControl Magellan 1.2 program (Tesap, Switzerland) by approximating the experimental points using a four-parameter model with the Levenberg-Marquardt optimization (Table 11).
(In general: Time-resolved FRET reads energy transfer from a long-lived donor to a nearby acceptor.)

The subject of another data set is MV4-11 cell line. The data set is described as follows: Antiproliferative activity on MV4-11 cell line (AlamarBlue). In kind it is cell-based. To be noted: Homo sapiens, 120 h incubation, average of several runs, read-out: MV-4-11 IC50. On the procedure: The antiproliferative activity of the CDK8 inhibitors according to the present invention was measured in a cell test on a finite MV4-11 cell line (biphenotypic myelomonocytic leukemia, ATCC© CRL-9591™) using an intravital AlamarBlue dye (ThermoFisher, #DAL1100). The cells were grown on an RPMI-1640 medium (PanEco, #C330p) supplemented with 10% FBS (Gibco, #16140-071), then washed and re-seeded on a culture medium with 10% FBS (Gibco, #16140-071) in 96-well culture plates (Corning, #3599) in the amount of ˜10×10^3 cells per 100 μl of medium per well. The tested compounds were dissolved in DMSO and diluted with 10% FBS (Gibco, #16140-071) to a final concentration ranging from 0 to 100 μM. […] At the end of the incubation period, 15 μl of AlamarBlue reagent (ThermoFisher, #DAL1100) were added to the wells. The contents of the plates were mixed using an orbital shaker (Biosan, Latvia), and incubated further from 3 to 5 hours at 37° C. in an incubator with 5% C02. The number of living cells was detected using a microplate spectrophotometer (Tecan Infinite M200Pro, Switzerland) by measuring a fluorescence signal at an excitation wavelength (λEx) of 540 nm and emission wavelength (λEm) of 590 nm.
The IC50 value was determined using the Magellan 7.2 program (Tesap, Switzerland) by approximating the experimental points using a four-parameter model with the Levenberg-Marquardt optimization (Table 10).
Background: The colour change of resazurin is a common sign of viable cells or microbes.

Data set [1] can be described thus: General cytotoxicity test on HepG2 cells. In kind it is cell-based. To be noted: human, 72 hours incubation, 200 to 0.78 μM, average of several runs, read-out: Hep-G2 CC50. On the procedure:
The CC50 value was determined in a cytotoxicity test. The experiments were performed using HepG2 cells (hepatocellular carcinoma, ATCC© HB-8065™). The cells were seeded into 96-well plates (Corning, #3599) at a concentration of ˜20×10^3 cells per 100 μl of medium per well, and incubated for 72 hours with the introduced compounds in the concentration range from 200 to 0.78 μM. Cell viability was evaluated according to the method described above.

Data set [2] in a line: Chemical stability in human blood plasma. The format is in vitro ADME. To be noted: pooled human blood plasma, 10 μM, 4 hours at 37° C., amount of substance remaining. As to the method: Chemical stability of the compounds described herein was determined in human blood plasma.
The determination of stability in human blood plasma was performed using a pooled human blood plasma taken from ten healthy donors. The initial solution of the candidate (10 mM in DMSO) was diluted with the pooled blood plasma to a concentration of 10 μM (test solution). The test solution was incubated in a solid-state thermostat for 4 hours at 37° C. The HPLC method and Agilent1200 chromatograph (Agilent, USA) were used to determine the peak areas of the compounds in the test samples corresponding to the initial test time (before incubation) and the final test time (after incubation in a solid-state thermostat for 4 hours at 37° C.) with preliminary precipitation of proteins using acetonitrile. Chromatographic analysis was performed using a gradient elution mode at a flow rate of 1 ml/min. The amount of substance in the sample expressed in % was determined after the thermostat treatment.

The nature of data set [3]: Enzymatic stability in human liver S9 fractions. The format is in vitro ADME. To be noted: pooled human liver S9 fraction; 0.5 mg/ml human liver S9, 10 μm compound, 37° C., pH 7.4. On the procedure:
Determining enzymatic stability of the candidates made it possible to evaluate the resistance of the compounds of the present invention to the exposure to biotransformation enzymes.
The enzymatic decomposition rate of the compounds was determined by incubation in a solid-state thermostat at 37° C. of a reaction mixture containing 0.5 mg/ml of pooled S9 fractions of the human liver (XenoTech, USA, cat. # H0610), 10 μm compounds, 2 mM β-nicotinamide adenine dinucleotide (Carbosynth, UK, cat. # NN 10871), and 4 mM magnesium chloride in 0.1 M sodium phosphate buffer (pH=7.4). The reaction was stopped with acetonitrile based on 100 μl of acetonitrile per 100 μl of the reaction mixture. After stopping the reaction, the samples were centrifuged for 10 minutes at 10,000 rpm. The supernatant was analyzed by chromatography using an Agilent1200 chromatograph (Agilent, USA). Chromatographic analysis was performed in a gradient elution mode at a flow rate of 1 ml/min. A logarithm of the peak area of the substance was plotted versus time. The dependent coefficient of this line corresponded to the elimination rate constant (k), which was used to calculate the half-life of the drug (t1/2) and decomposition rate (CLint): […]

The nature of data set [4]: Permeability through a monolayer of Caco-2 cells. The format is in vitro ADME. To be noted: human. As to the method: Determining the permeability through a monolayer of Caco-2 cells makes it possible to assess the ability of the substances to penetrate biological membranes by means of both active and passive transport.
The intestinal epithelial cells (Caco-2) were cultured using filter inserts ([…], BD Falcon with High Density) for 21 days, after which the monolayer integrity was checked using a Lucifer Yellow dye (Sigma-Aldrich, USA) according to the standard protocol. When setting up an A→B transfer (“intestinal lumen”—“blood flow” transfer), solutions of the tested substances were introduced in pH 6.5 buffer (HBSS, 10 mM HEPES, 15 mM glucose solution) at a concentration of 10 μM into the upper chamber, while the lower chamber was filled with pH 7.4 buffer (HBSS, 10 mM HEPES, 15 mM Glucose solution, 1% BSA). When setting up a B→A transfer (“blood flow”—“intestinal lumen” transfer), the upper chamber was filled with pH 6.5 buffer, and the solutions of the tested substances were introduced in pH 7.4 buffer at a concentration of 10 μM into the lower chamber. Propranolol, which is a high permeability substance, was used as a control.
After incubation for 2 h at 37° C. in an atmosphere containing 5% CO2, the amounts of the tested substances in the upper and lower chambers were determined by the HPLC method using an Agilent1200 chromatograph (Agilent, USA) with preliminary precipitation of proteins with acetonitrile. Chromatographic analysis was performed using a gradient elution mode at a flow rate of 1 ml/min. Peak areas corresponding to the compounds were determined on chromatograms. Based on the peak area values of the compound in calibration standards, compound concentrations in the initial solution and in the samples taken from the wells of the upper and lower chambers were determined.
Permeability through a layer of cells (Papp) was calculated based on the formula:
Papp=(C(t)*V)/(C(θ)*t*Area), where
Papp is the effective permeability constant, m/s V is the solution volume (0.8 ml in the A→B test, and 0.2 ml in the B→A test), ml Area is the surface area of the membrane (0.33 cm^2), cm^2 t is the incubation time (7,200 s), s C(θ) is the concentration of the initial solution, μM C(t) is the concentration of the solution after 2 hours (in the sample from the lower chamber well (test A→B), and in the sample from the upper chamber well (test B→A)), μM.
The value was calculated using the following formula:
efflux=Papp B-A/Papp A-B, where
Papp A-B is the permeability value during direct assay (A→B); Papp B-A is the permeability value during reverse assay (B→A);
(In general: Caco-2 monolayers are a common model of the intestinal barrier.)

Where a name gives a salt, the structure may show the parent alone. A value given as a limit tells only on which side of the number the result lay.

T1 sequence (P49336 whole entry): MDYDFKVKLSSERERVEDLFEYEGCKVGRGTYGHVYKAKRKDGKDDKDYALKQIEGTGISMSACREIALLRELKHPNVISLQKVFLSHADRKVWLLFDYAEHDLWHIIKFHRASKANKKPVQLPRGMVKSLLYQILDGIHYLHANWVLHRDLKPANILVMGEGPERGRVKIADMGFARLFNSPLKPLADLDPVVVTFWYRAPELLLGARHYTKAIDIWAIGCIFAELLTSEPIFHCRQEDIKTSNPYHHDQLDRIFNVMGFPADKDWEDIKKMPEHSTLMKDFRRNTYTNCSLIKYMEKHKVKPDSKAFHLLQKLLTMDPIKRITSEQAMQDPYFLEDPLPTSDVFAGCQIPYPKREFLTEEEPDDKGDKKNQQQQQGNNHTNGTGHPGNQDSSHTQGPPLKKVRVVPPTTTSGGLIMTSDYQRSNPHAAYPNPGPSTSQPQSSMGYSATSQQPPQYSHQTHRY
T1 sequence (P24863 whole entry partner): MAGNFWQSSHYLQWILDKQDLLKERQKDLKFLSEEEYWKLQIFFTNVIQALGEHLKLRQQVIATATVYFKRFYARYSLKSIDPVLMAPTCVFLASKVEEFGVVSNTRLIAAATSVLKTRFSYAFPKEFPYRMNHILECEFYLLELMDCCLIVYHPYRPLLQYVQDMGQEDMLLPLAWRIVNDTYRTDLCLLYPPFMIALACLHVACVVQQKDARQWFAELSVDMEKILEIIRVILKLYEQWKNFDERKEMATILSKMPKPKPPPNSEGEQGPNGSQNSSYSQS

The term IC50 denotes the concentration that gives 50% inhibition. With `CN1CCN(C(=O)c2ccc3cc(CCNc4cnnc5ccc(C#N)cc45)ccc3c2)CC1` [Compound 4, 4-((2-(6-(4-methylpiperazine-1-carbonyl)naphth-2-yl)ethyl)amino) cinnoline-6-carbonitryl], the half-inhibitory concentration (IC50) on CDK8/CyclinC came to 404 nM.
A word on the CC50: it is the concentration at which the toxic effect on the cells reaches its halfway point. As to `CC(C)N1CCN(C(=O)c2ccc3cc(CCNc4ccnc5ccc(C#N)cc45)ccc3c2)CC1` [Compound 7], the half-maximal inhibitory concentration (IC50) with MV4-11 cell line stood at 91 nM; on CDK8/CyclinC, 5.77 nM. The CC50 at 72 h in data set [1] turned out to be 8900 nM.
`CN1CCN(C(=O)c2ccc3cc(CCOc4ccnc5ccc(C#N)cc45)ccc3c2)CC1` [Compound 8, 4-(2-(6-(4-methylpiperazine-1-carbonyl)naphth-2-yl)ethoxy) quinoline-6-carbonitryl]: the 50% inhibitory concentration (IC50) in the data set with MV4-11 cell line turned out to be 602 nM; on CDK8/CyclinC it was 58.2 nM. Moreover, the 50% cytotoxic concentration (CC50) at 72 h in data set [1] worked out at 11200 nM.
As for `CN1CCN(C(=O)c2ccc3cc(CCNc4c(Cl)cnc5ccc(C#N)cc45)ccc3c2)CC1` [Compound 9, 3-chloro-4-((2-(6-(4-methylpiperazine-1-carbonyl)naphth-2-yl)ethyl)amino) quinoline-6-carbonitryl], the 50% inhibitory concentration (IC50) came to 106 nM in the data set on MV4-11 cell line and 20.5 nM on CDK8/CyclinC. For the same molecule, the CC50 at 72 h in data set [1] came out at 47300 nM. The “Stability in blood plasma, %” value in data set [2] was found to be 91.1%.
For `CN1CCN(C(=O)c2ccc3cc(CCNc4c(Cl)cnc5ccc(C#N)cc45)ccc3c2)CC1` [Compound 9a, 3-chloro-4-((2-(6-(4-methylpiperazine-1-carbonyl)naphth-2-yl)ethyl)amino) quinoline-6-carbonitryl dihydrochloride], the “Stability in blood plasma, %” value in data set [2] (dihydrochloride) is 87.9%.
Regarding `CN1CCN(C(=O)c2ccc3cc(CCNc4ccnc5ncc(C#N)cc45)ccc3c2)CC1` [Compound 11, 5-((2-(6-(4-methylpiperazine-1-carbonyl)naphth-2-yl)ethyl)amino)-1,8-naphthyridin-3-carbonitryl], the IC50 with MV4-11 cell line is 3300 nM; at CDK8/CyclinC, 655 nM. Also, the CC50 at 72 h in data set [1] came to 85100 nM.
Take `CCN1CCN(C(=O)c2ccc3cc(CCNc4ccnc5ccc(C#N)cc45)ccc3c2)CC1` [Compound 12]: the values for the IC50 in the data set with MV4-11 cell line and at CDK8/CyclinC were 79 nM and 6.54 nM, respectively. Besides, the 50% cytotoxic concentration (CC50) at 72 h in data set [1] was determined as 10600 nM.
`N#Cc1ccc2nccc(NCCc3ccc4cc(C(=O)N5CCOCC5)ccc4c3)c2c1` [Compound 13]: the IC50 was found to be 57 nM in the data set on MV4-11 cell line and 4.04 nM on CDK8/CyclinC. Moreover, the cytotoxic concentration (CC50) at 72 h in data set [1] is about 15000 nM.
In the case of `N#Cc1ccc2nccc(NCCc3ccc4cc(C(=O)N5CCN(CC(F)(F)F)CC5)ccc4c3)c2c1` [Compound 17, 4-((2-(6-(4-(2,2,2-trifluoroethyl)piperazine-4-carbonyl)naphth-2-yl)ethyl)amino)quinoline-6-carbonitryl], the results for the IC50 in the data set on MV4-11 cell line and on CDK8/CyclinC were 113 nM and 28.5 nM, respectively. Further, the CC50 at 72 h in data set [1] came to 17900 nM.
The term microsomal CLint denotes the rate of metabolic loss divided by the concentration. The low end stands for slow turnover, the high end for rapid turnover. What is called Papp A→B is how fast a substance crosses the layer from the apical side. Higher therefore signals ready permeation. In general, efflux ratio refers to a quotient of directional permeabilities that is used to spot active efflux. Consider `N#Cc1ccc2nccc(NCCc3ccc4cc(C(=O)N5CCNCC5)ccc4c3)c2c1` [Compound 18, 4-((2-(6-(piperazine-1-carbonyl)naphth-2-yl)ethyl)amino)quinoline-6-carbonitryl], for which, in the data set on MV4-11 cell line, the IC50 worked out at 19 nM. Besides, the microsomal CLint at 10 μM in data set [3] worked out at 4.4 µL/min/mg. In data set [4] (A→B, pH 6.5 upper / pH 7.4 lower chamber, 2 h at 37° C.), the apical-to-basolateral permeability (Papp A→B) at 2 h, 10 μM was found to be 22.4 ×10⁻⁶ cm/s. In data set [4] (Papp B-A/Papp A-B, 2 h), the efflux ratio at 2 h, 10 μM was 0.3. The half-maximal cytotoxic concentration (CC50) at 72 h in data set [1] worked out at 11600 nM. Moreover, in data set [2], the “Stability in blood plasma, %” value is listed as 100%.
As for `CN1CCN(C(=O)c2ccc3cc(CCSc4ccnc5ccc(C#N)cc45)ccc3c2)CC1` [Compound 19, 4-((2-(6-(4-methylpiperazine-1-carbonyl)naphth-2-yl)ethyl)thio) quinoline-6-carbonitryl], the half-maximal inhibitory concentration (IC50) in the data set with MV4-11 cell line was found to be 2610 nM; at CDK8/CyclinC, 118 nM. Besides, the CC50 at 72 h in data set [1] was over 200000 nM.

The record behind these values is patent US20220098160A1, “NOVEL CDK 8/19 INHIBITORS” (BIOCAD, priority 2018, published 2022).
